Results on 14 compounds are retold here after patent publication US20090221642A1, “MUSCARINIC RECEPTOR AGONISTS, COMPOSITIONS, METHODS OF TREATMENT THEREOF, AND PROCESSES FOR PREPARATION THEREOF-176” (AstraZeneca AB, priority 2008, published 2009).

As a reminder, the EC50 is the concentration that produces a half-maximal response.

Assay [1] has as its target T1, hM1 (human Muscarinic receptor subtype 1) (Homo sapiens, UniProt P11229).
T1 construct: expressed in transfected cells; host or cells: CHO cells (Chinese hamster ovary cells, ATCC)
T1 sequence (P11229 1-460): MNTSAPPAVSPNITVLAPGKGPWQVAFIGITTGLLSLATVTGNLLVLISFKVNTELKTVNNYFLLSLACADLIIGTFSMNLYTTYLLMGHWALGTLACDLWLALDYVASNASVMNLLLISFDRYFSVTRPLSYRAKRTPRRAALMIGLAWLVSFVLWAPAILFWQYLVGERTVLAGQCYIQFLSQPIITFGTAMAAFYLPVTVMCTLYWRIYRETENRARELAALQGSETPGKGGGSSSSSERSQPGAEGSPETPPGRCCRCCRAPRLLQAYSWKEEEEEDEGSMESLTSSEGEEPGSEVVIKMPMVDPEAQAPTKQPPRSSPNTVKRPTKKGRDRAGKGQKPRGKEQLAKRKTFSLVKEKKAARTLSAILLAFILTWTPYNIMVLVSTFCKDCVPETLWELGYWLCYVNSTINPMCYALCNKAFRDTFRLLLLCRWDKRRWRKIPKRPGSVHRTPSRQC
The assay can be described thus: Human M1 calcium mobilization FLIPR assay. The conditions noted are these: hM1 expressed in CHO cells, intracellular Ca2+ release, read-out: hM1 EC50. Type of assay: cell-based. As for the experimental part:
Human M1, rat M1, human M3 and human M5 Calcium Mobilization FLIPR™ Assay
The compound activity in the present invention (EC50 or IC50) is measured using a 384 plate-based imaging assay that monitors drug induced intracellular Ca^2+ release in whole cells. Activation of hM1 (human Muscarinic receptor subtype 1, gene bank access NM_000738), rM1 (rat Muscarinic receptor subtype 1, gene bank access NM_080773), hM3 (human Muscarinic receptor subtype 3, gene bank access NM_000740NM_000740) and hM5 (human Muscarinic receptor subtype 5, gene bank access NM_0121258), receptors expressed in CHO cells (Chinese hamster ovary cells, ATCC) is quantified in a Molecular Devices FLIPR II™ instrument as an increase in fluorescent signal. Inhibition of hM3 and hM5 by compounds is determined by the decrease in fluorescent signal in response to 2 nM acetylcholine activation.
Prior to experiment, the cell culture medium is removed from the plates by inversion. […] Plates are incubated at 37° C. for 60 minutes prior to start the experiment. The incubation is terminated by washing the cells four times in assay buffer, leaving a residual 25 μl buffer per well. Cell plates are then transferred to the FLIPR, ready for compound additions.
The day of experiment, acetylcholine and compounds are diluted in assay buffer in three-fold concentration range (10 points serial dilution) for addition by FLIPR instrument. For all calcium assays, a baseline reading is taken for 10 seconds followed by the addition of 12.5 μl of compounds, resulting in a total well volume of 37.5 μl. Data is collected every second for 60 pictures and then every 6 seconds for 20 pictures prior to the addition of agonist. For hM3 and hM5, before agonist addition, a second baseline reading is taken for 10 seconds followed by the addition of 12.5 μl of agonist or buffer, producing a final volume of 50 μl. After agonist stimulation, the FLIPR continues to collect data every second for 60 pictures and then every 6 seconds for 20 pictures. The fluorescence emission is read using filter 1 (emission 510-570 nm) by the FLIPR on board CCD camera.
Calcium mobilization output data are calculated as the maximal relative fluorescence unit (RFU) minus the minimal value for both compound and agonist reading frame (except for hM1 and rM1 using only the maximal RFU). Data are analyzed using sigmoidal fits of a non-linear curve-fitting program (XLfit version 4.2.2 Excel add-in version 4.2.2 build 18 math 1Q version 2.1.2 build 18). All pEC50 and plC50 values are reported as arithmetic means ±standard error of mean of ‘n’ independent experiments.
(Calcium assays in cells follow changes in intracellular calcium, usually with a dye or a luminescent sensor.)

Assay [2] deals with T2, cloned human M2 receptor (human Muscarinic receptor subtype 2) (Homo sapiens, UniProt P08172).
T2 construct: purchased Perkin-Elmer RBHM2M; host or cells: Chinese hamster ovary cells (CHO) membranes
T2 sequence (P08172 1-466): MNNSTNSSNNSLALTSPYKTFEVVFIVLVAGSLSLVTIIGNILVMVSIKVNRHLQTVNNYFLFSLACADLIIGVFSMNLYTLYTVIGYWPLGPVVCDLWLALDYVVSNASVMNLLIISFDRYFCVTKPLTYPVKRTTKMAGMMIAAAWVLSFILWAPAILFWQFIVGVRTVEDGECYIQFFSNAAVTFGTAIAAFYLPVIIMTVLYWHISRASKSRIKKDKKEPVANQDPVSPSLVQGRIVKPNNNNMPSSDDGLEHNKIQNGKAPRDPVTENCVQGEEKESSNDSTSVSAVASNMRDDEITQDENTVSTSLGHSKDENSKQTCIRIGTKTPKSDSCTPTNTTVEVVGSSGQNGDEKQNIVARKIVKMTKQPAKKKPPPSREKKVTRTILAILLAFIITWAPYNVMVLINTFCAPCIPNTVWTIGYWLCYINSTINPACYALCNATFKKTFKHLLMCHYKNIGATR
The assay can be described thus: hM2 receptor GTPγS binding. Type of assay: biochemical. The conditions noted are these: CHO cell membranes expressing hM2; [35S]GTPγS binding; read-out: hM2 EC50. As to the method:
hM2 Receptor GTPγS Binding
Membranes produced from Chinese hamster ovary cells (CHO) expressing the cloned human M2 receptor (human Muscarinic receptor subtype 2, gene bank access NM_000739), are obtained from Perkin-Elmer (RBHM2M). The membranes are thawed at 37° C., passed 3 times through a 23-gauge blunt-end needle, diluted in the GTPγS binding buffer (50 mM Hepes, 20 mM NaOH, 100 mM NaCl, 1 mM EDTA, 5 mM MgCl2, pH 7.4, 100 μM DTT). The EC50, IC50 and Emax of the compounds of the invention are evaluated from 10-point dose-response curves (three fold concentration range) done in 60 μl in 384-well non-specific binding surface plate (Corning). Ten microliters from the dose-response curves plate (5× concentration) are transferred to another 384 well plate containing 25 μl of the following: 5 μg of hM2 membranes, 500 μg of Flashblue beads (Perkin-Elmer) and GDP 25 μM. An additional 15 μl containing 3.3× (60,000 dpm) of GTPγ^35S (0.4 nM final) are added to the wells resulting in a total well volume of 50 μl. Basal and maximal stimulated [^35S]GTPγS binding are determined in absence and presence of 30 μM final of acetylcholine agonist. The membranes/beads mix are pre-incubated for 15 minutes at room temperature with 25 μM GDP prior to distribution in plates (12.5 μM final). The reversal of acetylcholine-induced stimulation (2 μM final) of [^35S]GTPγS binding is used to assay the antagonist properties (IC50) of the compounds. The plates are incubated for 60 minutes at room temperature then centrifuged at 400 rpm for 5 minutes. The radioactivity (cpm) is counted in a Trilux (Perkin-Elmer).
Values of EC50, IC50 and Emax are obtained using sigmoidal fits of a non-linear curve-fitting program (XLfit version 4.2.2 Excel add-in version 4.2.2 build 18 math 1Q version 2.1.2 build 18) of percent stimulated [^35S]GTPγS binding vs. log(molar ligand). All pEC50 and plC50 values are reported as arithmetic means ±standard error of mean of ‘n’ independent experiments.
(In general: GTPγS is a poorly hydrolysed GTP analogue; its binding reports G protein activation.)

Regarding `COC(=O)N1CCC(C)(N2CCC(N3C(=O)Cc4ccc(F)cc43)CC2)C1` (single isomer, unassigned) [Example 76, methyl 3-(4-(6-fluoro-2-oxoindolin-1-yl)piperidin-1-yl)-3-methylpyrrolidine-1-carboxylate], the EC50 was determined as 40.1 nM in assay [1] and 3500 nM in assay [2].
On the same counts, the results for `CCOC(=O)N1CCC(C)(N2CCC(N3C(=O)Cc4cc(F)ccc43)CC2)C1` (single isomer, unassigned) [Example 79, ethyl 3-(4-(5-fluoro-2-oxoindolin-1-yl)piperidin-1-yl)-3-methylpyrrolidine-1-carboxylate] are 9.2 nM and 1130 nM.
For the compound `CCOC(=O)N1CCC(C)(N2CCC(n3c(=O)[nH]c4cc(F)c(C)cc43)CC2)C1` (single isomer, unassigned) [Example 55, ethyl 3-(4-(5-fluoro-6-methyl-2-oxo-2,3-dihydro-1H-benzo[d]imidazol-1-yl)piperidin-1-yl)-3-methylpyrrolidine-1-carboxylate], the results for the EC50 in assay [1] and in assay [2] were 4.9 nM and 319 nM, respectively.
On the same counts, the results for `COC(=O)N1CCC(C)(N2CCC(n3c(=O)[nH]c4cc(F)ccc43)CC2)C1` (stereo not shown) [Example 8, methyl 3-(4-(5-fluoro-2-oxo-2,3-dihydro-1H-benzo[d]imidazol-1-yl)piperidin-1-yl)-3-methylpyrrolidine-1-carboxylate] are 18.3 nM and 1280 nM.
On the same counts, the results for `C#CCOC(=O)N1CCC(C)(N2CCC(n3c(=O)[nH]c4cc(F)ccc43)CC2)C1` (single isomer, unassigned) [Example 25, prop-2-ynyl 3-(4-(5-fluoro-2-oxo-2,3-dihydro-1H-benzo[d]imidazol-1-yl)piperidin-1-yl)-3-methylpyrrolidine-1-carboxylate] are 1.8 nM and 146 nM.
For `Cc1ccc2[nH]c(=O)n(C3CCN(C4(C)CCN(C(=O)OCCF)C4)CC3)c2c1` (single isomer, unassigned) [Example 28, 2-fluoroethyl 3-methyl-3-(4-(6-methyl-2-oxo-2,3-dihydro-1H-benzo[d]imidazol-1-yl)piperidin-1-yl)pyrrolidine-1-carboxylate], in that order: 10 nM and 2400 nM.
Consider `CCOC(=O)N1CCC(C)(N2CCC(n3c(=O)[nH]c4cc(C)ccc43)CC2)C1` (single isomer, unassigned) [Example 12, ethyl 3-methyl-3-(4-(5-methyl-2-oxo-2,3-dihydro-1H-benzo[d]imidazol-1-yl)piperidin-1-yl)pyrrolidine-1-carboxylate], for which the EC50 in assay [1] was 10.1 nM; in assay [2], 771 nM.
`CC1(N2CCC(n3c(=O)[nH]c4cc(F)c(F)cc43)CC2)CCN(C(=O)OCCF)C1` (single isomer, unassigned) [Example 61, 2-fluoroethyl 3-(4-(5,6-difluoro-2-oxo-2,3-dihydro-1H-benzo[d]imidazol-1-yl)piperidin-1-yl)-3-methylpyrrolidine-1-carboxylate]: the half-maximal effective concentration (EC50) came out at 14.1 nM in assay [1] and 1710 nM in assay [2].
On the same counts, the results for `COC(=O)N1CCC(C)(N2CCC(n3c(=O)[nH]c4ccc(F)cc43)CC2)C1` (single isomer, unassigned) [Example 52, methyl 3-(4-(6-fluoro-2-oxo-2,3-dihydro-1H-benzo[d]imidazol-1-yl)piperidin-1-yl)-3-methylpyrrolidine-1-carboxylate] are 14.7 nM and 1240 nM.
On the same counts, the results for `C#CCOC(=O)N1CCC(C)(N2CCC(n3c(=O)[nH]c4ccc(C)cc43)CC2)C1` (single isomer, unassigned) [Example 41, prop-2-ynyl 3-methyl-3-(4-(6-methyl-2-oxo-2,3-dihydro-1H-benzo[d]imidazol-1-yl)piperidin-1-yl)pyrrolidine-1-carboxylate] are 23.5 nM and 2210 nM.
For `COC(=O)N1CCC(C)(N2CCC(n3c(=O)[nH]c4cc(F)c(F)cc43)CC2)C1` (single isomer, unassigned) [Example 60, methyl 3-(4-(5,6-difluoro-2-oxo-2,3-dihydro-1H-benzo[d]imidazol-1-yl)piperidin-1-yl)-3-methylpyrrolidine-1-carboxylate], in that order: 13.5 nM and 1030 nM.
As for `CC#CCOC(=O)N1CCC(C)(N2CCC(n3c(=O)[nH]c4cc(C)ccc43)CC2)C1` (single isomer, unassigned) [Example 21, but-2-ynyl 3-methyl-3-(4-(5-methyl-2-oxo-2,3-dihydro-1H-benzo[d]imidazol-1-yl)piperidin-1-yl)pyrrolidine-1-carboxylate], the EC50 in assay [1] came to 12.5 nM; in assay [2] it was 94 nM.
On the same counts, the results for `Cc1ccc2[nH]c(=O)n(C3CCN(C4(C)CCN(C(=O)OCCF)C4)CC3)c2c1` (single isomer, unassigned) [Example 26, 2-fluoroethyl 3-methyl-3-(4-(6-methyl-2-oxo-2,3-dihydro-1H-benzo[d]imidazol-1-yl)piperidin-1-yl)pyrrolidine-1-carboxylate] are 7.8 nM and 146 nM.
In the case of `CCOC(=O)N1CCC(C)(N2CCC(N3C(=O)Cc4cc(F)c(C)cc43)CC2)C1` (single isomer, unassigned) [Example 82, ethyl 3-(4-(5-fluoro-6-methyl-2-oxoindolin-1-yl)piperidin-1-yl)-3-methylpyrrolidine-1-carboxylate], the EC50 amounted to 8.7 nM in assay [1] and 270 nM in assay [2].
